Experimental data: the NIST ThermoML archive (doi:10.1021/acs.jced.5b00209)

Conditions: 101.33 kPa, Liquid; for viscosity: Capillary tube (Ostwald / Ubbelohde) method; for mass density: Pycnometric method

C[S+](C)[O-] [dimethyl sulfoxide]
Conditions	mass density [kg/m3]	viscosity [mPa·s]
298.15 K	1096.8	2.01
303.15 K	1091.4	1.82
308.15 K	1086.1	1.65
313.15 K	1081.2	1.54
318.15 K	1075.3	1.37
